Key:
[1] = test system: HCV genotype 1a (H77 strain) replicon in HUH-7 cells; assay: HCV replicon luciferase reporter assay, genotype 1a; format: cell-based; conditions: Hepatitis C virus, Huh-7, 72 h, HCV genotype 1a replicon luciferase assay, 3 days incubation, range class, read-out: LE_1a (EC50, range)
Procedure, shortened: (§1)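 Replicon inhibition for both genotypes was measured as Renilla luciferase signal (EnduRen, 7.5 μM final, 2 h) after 3-day, 37° C exposure of replicon-bearing HUH-7 cells in 4% FCS DMEM, 0.5% DMSO. The 1b construct carries S1179I; the 1a H77 construct carries P1496L and S2204I. Twenty-point, 3-fold dilutions were fitted four-parametrically for EC50, and CC50 was taken from multiplexed Cell Titer-Blue.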

[2] = test system: HCV genotype 1b (Con1) replicon in HUH-7 cells; assay: HCV replicon luciferase reporter assay, genotype 1b; format: cell-based; conditions: Hepatitis C virus, Huh-7, 72 h, HCV genotype 1b replicon luciferase assay, 3 days incubation, range class, read-out: LE_1b (EC50, range)
Procedure, shortened: as §1

| Compound | EC50 [1] [nM] | EC50 [2] [nM] |
| --- | --- | --- |
| COCCOc1cnc(O[C@@H]2C[C@H]3C(=O)N[C@]4(C(=O)NS(=O)(=O)C5CC5)C[C@H]4/C=C\CC[C@H](C)C[C@@H](C)[C@H](NC(=O)OC(C)(C)C(F)(F)F)C(=O)N3C2)c2ccc(OC)cc12 [Compound 1146, 1,1,1-trifluoro-2-methylpropan-2-yl((2R,6S,7R,9S,13aS,14aR,16aS,Z)-14a-((cyclopropylsulfonyl)carbamoyl)-2-((6-methoxy-4-(2-methoxyethoxyl)isoquinolin-1-yl)oxy)-7,9-dimethyl-5,16-dioxo-1,2,3,5,6,7,8,9,10,11,13a,14,14a,15,16,16a-hexadecahydrocyclopropa[e]pyrrolo[1,2-a][1,4]diazacyclopentadecin-6-yl)carbamate] | < 5.46 | < 5.46 |
| COCCOc1cnc(O[C@@H]2C[C@H]3C(=O)N[C@]4(C(=O)NS(=O)(=O)C5CC5)C[C@H]4/C=C\CC[C@@H](C)C[C@@H](C)[C@H](NC(=O)OC(C)(C)C(F)(F)F)C(=O)N3C2)c2ccc(OC)cc12 [Compound 1147, 1,1,1-trifluoro-2-methylpropan-2-yl((2R,6S,7R,9R,13aS,14aR,16aS,Z)-14a-((cyclopropylsulfonyl)carbamoyl)-2-((6-methoxy-4-(2-methoxyethoxyl)isoquinolin-1-yl)oxy)-7,9-dimethyl-5,16-dioxo-1,2,3,5,6,7,8,9,10,11,13a,14,14a,15,16,16a-hexadecahydrocyclopropa[e]pyrrolo[1,2-a][1,4]diazacyclopentadecin-6-yl)carbamate] | < 5.46 | < 5.46 |
| COCCOc1cnc(O[C@@H]2C[C@H]3C(=O)N[C@]4(C(=O)NS(=O)(=O)C5(C)CC5)C[C@H]4/C=C\CC[C@H](C)C[C@@H](C)[C@H](NC(=O)OC(C)(C)C(C)(F)F)C(=O)N3C2)c2ccc(OC)cc12 [Compound 1148, 3,3-difluoro-2-methylbutan-2-yl((2R,6S,7R,9S,13aS,14aR,16aS,Z)-2-((6-methoxy-4-(2-methoxyethoxyl)isoquinolin-1-yl)oxy)-7,9-dimethyl-14a-(((1-methylcyclopropyl)sulfonyl)carbamoyl)-5,16-dioxo-1,2,3,5,6,7,8,9,10,11,13a,14,14a,15,16,16a-hexadecahydrocyclopropa[e]pyrrolo[1,2-a][1,4]diazacyclopentadecin-6-yl)carbamate] | < 5.46 | < 5.46 |
| COCCOc1cnc(O[C@@H]2C[C@H]3C(=O)N[C@]4(C(=O)NS(=O)(=O)C5(C)CC5)C[C@H]4/C=C\CC[C@@H](C)C[C@@H](C)[C@H](NC(=O)OC(C)(C)C(C)(F)F)C(=O)N3C2)c2ccc(OC)cc12 [Compound 1149, 3,3-difluoro-2-methylbutan-2-yl((2R,6S,7R,9R,13aS,14aR,16aS,Z)-2-((6-methoxy-4-(2-methoxyethoxyl)isoquinolin-1-yl)oxy)-7,9-dimethyl-14a-(((1-methylcyclopropyl)sulfonyl)carbamoyl)-5,16-dioxo-1,2,3,5,6,7,8,9,10,11,13a,14,14a,15,16,16a-hexadecahydrocyclopropa[e]pyrrolo[1,2-a][1,4]diazacyclopentadecin-6-yl)carbamate] | < 5.46 | < 5.46 |
| COCCOc1cnc(O[C@@H]2C[C@H]3C(=O)N[C@]4(C(=O)NS(=O)(=O)C5CC5)C[C@H]4/C=C\CC[C@H](C)C[C@@H](C)[C@H](NC(=O)OC(C)(C)C(C)(F)F)C(=O)N3C2)c2ccc(OC)cc12 [Compound 1150, 3,3-difluoro-2-methylbutan-2-yl((2R,6S,7R,9S,13aS,14aR,16aS,Z)-14a-((cyclopropylsulfonyl)carbamoyl)-2-((6-methoxy-4-(2-methoxyethoxyl)isoquinolin-1-yl)oxy)-7,9-dimethyl-5,16-dioxo-1,2,3,5,6,7,8,9,10,11,13a,14,14a,15,16,16a-hexadecahydrocyclopropa[e]pyrrolo[1,2-a][1,4]diazacyclopentadecin-6-yl)carbamate] | < 5.46 | < 5.46 |
| COCCOc1cnc(O[C@@H]2C[C@H]3C(=O)N[C@]4(C(=O)NS(=O)(=O)C5CC5)C[C@H]4/C=C\CC[C@@H](C)C[C@@H](C)[C@H](NC(=O)OC(C)(C)C(C)(F)F)C(=O)N3C2)c2ccc(OC)cc12 [Compound 1151, 3,3-difluoro-2-methylbutan-2-yl((2R,6S,7R,9R,13aS,14aR,16aS,Z)-14a-((cyclopropylsulfonyl)carbamoyl)-2-((6-methoxy-4-(2-methoxyethoxyl)isoquinolin-1-yl)oxy)-7,9-dimethyl-5,16-dioxo-1,2,3,5,6,7,8,9,10,11,13a,14,14a,15,16,16a-hexadecahydrocyclopropa[e]pyrrolo[1,2-a][1,4]diazacyclopentadecin-6-yl)carbamate] | < 5.46 | < 5.46 |
| COCCOc1cnc(O[C@@H]2C[C@H]3C(=O)N[C@]4(C(=O)NS(=O)(=O)C5(C)CC5)C[C@H]4/C=C\CC[C@H](C)C[C@@H](C)[C@H](NC(=O)OC(C)(C)C)C(=O)N3C2)c2ccc(OC)cc12 [Compound 1152, tert-butyl ((2R,6S,7R,9S,13aS,14aR,16aS,Z)-2-((6-methoxy-4-(2-methoxyethoxyl)isoquinolin-1-yl)oxy)-7,9-dimethyl-14a-(((1-methylcyclopropyl)sulfonyl)carbamoyl)-5,16-dioxo-1,2,3,5,6,7,8,9,10,11,13a,14,14a,15,16,16a-hexadecahydrocyclopropa[e]pyrrolo[1,2-a][1,4]diazacyclopentadecin-6-yl)carbamate] | < 5.46 | < 5.46 |
| COCCOc1cnc(O[C@@H]2C[C@H]3C(=O)N[C@]4(C(=O)NS(=O)(=O)C5(C)CC5)C[C@H]4/C=C\CC[C@@H](C)C[C@@H](C)[C@H](NC(=O)OC(C)(C)C)C(=O)N3C2)c2ccc(OC)cc12 [Compound 1153, tert-butyl ((2R,6S,7R,9R,13aS,14aR,16aS,Z)-2-((6-methoxy-4-(2-methoxyethoxyl)isoquinolin-1-yl)oxy)-7,9-dimethyl-14a-(((1-methylcyclopropyl)sulfonyl)carbamoyl)-5,16-dioxo-1,2,3,5,6,7,8,9,10,11,13a,14,14a,15,16,16a-hexadecahydrocyclopropa[e]pyrrolo[1,2-a][1,4]diazacyclopentadecin-6-yl)carbamate] | < 5.46 | < 5.46 |
| COCCOc1cnc(O[C@@H]2C[C@H]3C(=O)N[C@]4(C(=O)NS(=O)(=O)C5CC5)C[C@H]4/C=C\CC[C@H](C)C[C@@H](C)[C@H](NC(=O)OC(C)(C)C)C(=O)N3C2)c2ccc(OC)cc12 [Compound 1154, tert-butyl ((2R,6S,7R,9S,13aS,14aR,16aS,Z)-14a-((cyclopropylsulfonyl)carbamoyl)-2-((6-methoxy-4-(2-methoxyethoxyl)isoquinolin-1-yl)oxy)-7,9-dimethyl-5,16-dioxo-1,2,3,5,6,7,8,9,10,11,13a,14,14a,15,16,16a-hexadecahydrocyclopropa[e]pyrrolo[1,2-a][1,4]diazacyclopentadecin-6-yl)carbamate] | < 5.46 | < 5.46 |
| COCCOc1cnc(O[C@@H]2C[C@H]3C(=O)N[C@]4(C(=O)NS(=O)(=O)C5CC5)C[C@H]4/C=C\CC[C@@H](C)C[C@@H](C)[C@H](NC(=O)OC(C)(C)C)C(=O)N3C2)c2ccc(OC)cc12 [Compound 1155, tert-butyl ((2R,6S,7R,9R,13aS,14aR,16aS,Z)-14a-((cyclopropylsulfonyl)carbamoyl)-2-((6-methoxy-4-(2-methoxyethoxyl)isoquinolin-1-yl)oxy)-7,9-dimethyl-5,16-dioxo-1,2,3,5,6,7,8,9,10,11,13a,14,14a,15,16,16a-hexadecahydrocyclopropa[e]pyrrolo[1,2-a][1,4]diazacyclopentadecin-6-yl)carbamate] | < 5.46 | < 5.46 |
| COCCOc1cnc(O[C@@H]2C[C@H]3C(=O)N[C@]4(C(=O)NS(=O)(=O)C5(C)CC5)C[C@H]4/C=C\CC[C@H](C)C[C@@H](C)[C@H](NC(=O)OC4COC4)C(=O)N3C2)c2ccc(OC)cc12 [Compound 1156, oxetan-3-yl((2R,6S,7R,9S,13aS,14aR,16aS,Z)-2-((6-methoxy-4-(2-methoxyethoxyl)isoquinolin-1-yl)oxy)-7,9-dimethyl-14a-(((1-methylcyclopropyl)sulfonyl)carbamoyl)-5,16-dioxo-1,2,3,5,6,7,8,9,10,11,13a,14,14a,15,16,16a-hexadecahydrocyclopropa[e]pyrrolo[1,2-a][1,4]diazacyclopentadecin-6-yl)carbamate] | 4.82 to 103 | 4.82 to 103 |
| COCCOc1cnc(O[C@@H]2C[C@H]3C(=O)N[C@]4(C(=O)NS(=O)(=O)C5(C)CC5)C[C@H]4/C=C\CC[C@@H](C)C[C@@H](C)[C@H](NC(=O)OC4COC4)C(=O)N3C2)c2ccc(OC)cc12 [Compound 1157, oxetan-3-yl ((2R,6S,7R,9R,13aS,14aR,16aS,Z)-2-((6-methoxy-4-(2-methoxyethoxyl)isoquinolin-1-yl)oxy)-7,9-dimethyl-14a-(((1-methylcyclopropyl)sulfonyl)carbamoyl)-5,16-dioxo-1,2,3,5,6,7,8,9,10,11,13a,14,14a,15,16,16a-hexadecahydrocyclopropa[e]pyrrolo[1,2-a][1,4]diazacyclopentadecin-6-yl)carbamate] | 4.82 to 103 | 4.82 to 103 |
| COCCOc1cnc(O[C@@H]2C[C@H]3C(=O)N[C@]4(C(=O)NS(=O)(=O)C5CC5)C[C@H]4/C=C\CC[C@H](C)C[C@@H](C)[C@H](NC(=O)OC4COC4)C(=O)N3C2)c2ccc(OC)cc12 [Compound 1158, oxetan-3-yl ((2R,6S,7R,9S,13aS,14aR,16aS,Z)-14a-((cyclopropylsulfonyl)carbamoyl)-2-((6-methoxy-4-(2-methoxyethoxyl)isoquinolin-1-yl)oxy)-7,9-dimethyl-5,16-dioxo-1,2,3,5,6,7,8,9,10,11,13a,14,14a,15,16,16a-hexadecahydrocyclopropa[e]pyrrolo[1,2-a][1,4]diazacyclopentadecin-6-yl)carbamate] | 4.82 to 103 | 4.82 to 103 |

From patent US9499550B2 (BRISTOL-MYERS SQUIBB COMPANY, priority 2012, dated 2016)
